Target: T1, mAChR M1 (UniProt P11229)
T1 sequence (P11229 1-460): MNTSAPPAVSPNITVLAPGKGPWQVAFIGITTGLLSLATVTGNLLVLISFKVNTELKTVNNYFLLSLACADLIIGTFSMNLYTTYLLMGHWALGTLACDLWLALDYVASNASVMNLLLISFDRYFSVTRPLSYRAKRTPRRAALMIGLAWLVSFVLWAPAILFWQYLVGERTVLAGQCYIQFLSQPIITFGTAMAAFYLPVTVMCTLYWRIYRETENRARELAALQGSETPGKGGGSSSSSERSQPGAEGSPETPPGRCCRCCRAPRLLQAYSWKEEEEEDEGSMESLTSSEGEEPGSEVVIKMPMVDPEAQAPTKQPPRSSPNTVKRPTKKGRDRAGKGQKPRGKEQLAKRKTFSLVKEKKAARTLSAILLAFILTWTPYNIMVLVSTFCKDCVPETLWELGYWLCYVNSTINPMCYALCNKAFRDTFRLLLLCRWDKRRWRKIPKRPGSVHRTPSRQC
Experiment: mAChR M1 cell-based functional assay (calcium mobilization, potentiation of EC20 acetylcholine response)
Settings: for Emax: % ACh maximum at 30 μM; for EC50: CHO-K1 cells expressing mAChR M1, increase in EC20 acetylcholine response, >10 μM estimated where no plateau in the curve
Method: Chinese hamster ovary (CHO-K1) cells stably expressing rat (r)M1 were purchased from the American Type Culture Collection and cultured according to their indicated protocol. […] To make stable rM2, hM2, rM3, hM4, and rM4 cell lines for use in calcium mobilization assays, these cells also were stably transfected with a chimeric G-protein (Gqi5) (provided by B. R. Conklin, University of California, San Francisco) using Lipofectamine 2000. rM1, hM1, rM3, hM3, rM5, and hM5 cells were grown in Ham's F-12 medium containing 10% heat-inactivated fetal bovine serum (FBS), 20 mM HEPES, and 50 μg/mL G418 sulfate. rM2-Gqi5, hM2-Gqi5, and hM4-Gqi5 cells were grown in the same medium also containing 500 μg/mL Hygromycin B. Stable rM4-Gqi5 cells were grown in DMEM containing 10% heat-inactivated FBS, 20 mM HEPES, 400 μg/mL G418 sulfate, and 500 μg/mL Hygromycin B.
For high throughput measurement of agonist-evoked increases in intracellular calcium, CHO-K1 cells stably expressing muscarinic receptors were plated in growth medium lacking G418 and hygromycin at 15,000 cells/20 μL/well in Greiner 384-well black-walled, tissue culture (TC)-treated, clear-bottom plates (VWR). Cells were incubated overnight at 37° C. and 5% CO2. […] Compound master plates were formatted in an 11 point CRC format (1:3 dilutions) in 100% DMSO with a starting concentration of 10 mM using the BRAVO liquid handler (Agilent). Test compound CRCs were then transferred to daughter plates ([…]) using the Echo acoustic plate reformatter (Labcyte, Sunnyvale, Calif.) and then diluted into assay buffer (40 μL) to a 2× stock using a Thermo Fisher Combi (Thermo Fisher Scientific, Waltham, Mass.).
Calcium flux was measured using the Functional Drug Screening System (FDSS) 6000 (Hamamatsu Corporation, Tokyo, Japan) as an increase in the fluorescent static ratio. Compounds were applied to cells (20 μL, 2×) using the automated system of the FDSS 6000 at 4 s into the 300 s protocol and the data were collected at 1 Hz. […] Agonist activity was analyzed as a concentration-dependent increase in calcium mobilization upon compound addition. Positive allosteric modulator activity was analyzed as a concentration-dependent increase in the EC20 acetylcholine response. Antagonist activity was analyzed as a concentration-dependent decrease in the EC80 acetylcholine response. Concentration-response curves were generated using a four-parameter logistical equation in XLfit curve fitting software (IDBS, Bridgewater, N.J.) for Excel (Microsoft, Redmond, Wash.) or Prism (GraphPad Software, Inc., San Diego, Calif.).
The calcium mobilization assay was also used to determine “efficacy”. In the context of the assays carried out for the data in Table II, “efficacy” (% ACh at 30 μM) is defined as the maximal response in the calcium flux as determined by the sigmoidal curve fit of the concentration response curve, or in the absence of an acceptable curve fit, the response recorded at 30 μM test compound, stated as a percentage of the response elicited by a concentration of Ach that induces approximately 80% of a maximal (i.e. saturating) ACh response.
Substituted benzylspiroindolin-2-one analogs were synthesized as described above. Activity (EC50 and Emax) was determined in the mAChR M1 cell-based functional assay as described above and the data are shown in Table III. The compound number corresponds to the compound numbers used in Tables I and II.

Row | Compound | Emax [%] | EC50 [µM]
1 | CN1CCC2(C1)C(=O)N(Cc1ccc(-c3cnn(C)c3)cc1F)c1ccccc12 (single isomer, unassigned) [Compound B31, 1-(2-fluoro-4-(1-methyl-1H-pyrazol-4-yl)benzyl)-1′-methylspiro[indoline-3,3′-pyrrolidin]-2-one] | 76 | 3.8
2 | Cn1cc(-c2ccc(CN3C(=O)C4(CCN(C5CCCNC5)CC4)c4ccccc43)c(F)c2)cn1 (centres unmarked) [Compound B43] | 48 | 5
3 | Cn1cc(-c2ccc(CN3C(=O)C4(CCN(C5CCSCC5)CC4)c4ccccc43)c(F)c2)cn1 [Compound B40] | 38 | 4.7
4 | Cn1cc(-c2ccc(CN3C(=O)C4(CCN(C5CCCOC5)C4)c4ccccc43)c(F)c2)cn1 (single isomer, unassigned) [Compound B68] | 60 | > 10
5 | Cn1cc(-c2ccc(CN3C(=O)C4(CCN(C5CCCC5)C4)c4ccccc43)c(F)c2)cn1 (centres unmarked) [Compound B3, 1′-cyclopentyl-1-(2-fluoro-4-(1-methyl-1H-pyrazol-4-yl)benzyl)spiro[indoline-3,3′-pyrrolidin]-2-one] | 61 | 1.6
6 | Cn1cc(-c2ccc(CN3C(=O)C4(CCN(C5CCCOC5)C4)c4ccccc43)c(F)c2)cn1 (centres unmarked) [Compound B19] | 62 | 2.9
7 | Cn1cc(-c2ccc(CN3C(=O)C4(CCN(C5CCOCC5)CC4)c4ccccc43)c(F)c2)cn1 [Compound B69] | 41 | > 10
8 | Cn1cc(-c2ccc(CN3C(=O)C4(CCN(C5CCCCC5F)CC4)c4ccccc43)c(F)c2)cn1 (centres unmarked) [Compound B9] | 32 | 2.3
9 | CN1CCC2(CC1)C(=O)N(Cc1ccc(-c3cnn(C)c3)cc1F)c1ccccc12 [Compound B36] | 48 | 4
10 | CN1CCC2(CC1)C(=O)N(Cc1c(F)cc(-c3cccc4nn(C)cc34)cc1F)c1ccccc12 [Compound B79] | <30 | > 10
11 | Cn1cc(-c2ccc(CN3C(=O)C4(CCN(C5CCCCC5)C4)c4ccccc43)c(F)c2)cn1 (single isomer, unassigned) [Compound B58] | 39 | > 10
12 | CN1CCC(N2CCC3(C2)C(=O)N(Cc2ccc(-c4cnn(C)c4)cc2F)c2ccccc23)CC1 (centres unmarked) [Compound B27] | 63 | 3.5
13 | Cn1cc(-c2ccc(CN3C(=O)C4(CCN(C5CCCC5)CC4)c4ccccc43)c(F)c2)cn1 [Compound B46] | 34 | 5.5
14 | Cn1cc(-c2ccc(CN3C(=O)C4(CCN(C5CCNC5)CC4)c4ccccc43)c(F)c2)cn1 (centres unmarked) [Compound B33] | 52 | 3.9
15 | CN1CCC2(CC1)C(=O)N(Cc1c(F)cc(-c3ccc4c(c3)CC(=O)N4)cc1F)c1ccccc12 [Compound B78] | 38 | 6.6
16 | Cn1cc(-c2ccc(CN3C(=O)C4(CCN(C5COC5)CC4)c4ccccc43)c(F)c2)cn1 [Compound B55] | 45 | 7
17 | CN1CCC(N2CCC3(CC2)C(=O)N(Cc2ccc(-c4cnn(C)c4)cc2F)c2ccccc23)C1 (centres unmarked) [Compound B39] | 55 | 4.7
18 | Cn1cc(-c2ccc(CN3C(=O)C4(CCN(C5CCCOC5)CC4)c4ccccc43)c(F)c2)cn1 (centres unmarked) [Compound B38] | 50 | 4.7

The next lines start with the values.

Row | Emax [%] | EC50 [µM] | Compound
19 | <30 | > 10 | Cn1cc2c(-c3cc(F)c(CN4C(=O)C5(CCN(C(=O)OC(C)(C)C)C5)c5ccccc54)c(F)c3)cccc2n1 (centres unmarked) [Compound B76]
20 | 69 | 6 | CC(C)CN1CCC2(C1)C(=O)N(Cc1ccc(-c3cnn(C)c3)cc1F)c1ccccc12 (centres unmarked) [Compound B49]
21 | 45 | 2.8 | CCn1cc(-c2ccc(CN3C(=O)C4(CCN(C5CCCC5)C4)c4ccccc43)c(F)c2)cn1 (centres unmarked) [Compound B17]
22 | 62 | 2.9 | CN1CCC2(C1)C(=O)N(Cc1ccc(-c3cnn(C)c3)cc1F)c1ccccc12 (racemic) [Compound B18, 1-(2-fluoro-4-(1-methyl-1H-pyrazol-4-yl)benzyl)-1′-methylspiro[indoline-3,3′-pyrrolidin]-2-one]
23 | 72 | 1.7 | Cn1cc(-c2cc(F)c(CN3C(=O)C4(CCN(C5CCCC5)C4)c4ccccc43)c(F)c2)cn1 (centres unmarked) [Compound B4]
24 | 32 | 4.4 | CC(C)N1CCC2(C1)C(=O)N(Cc1ccc(-c3cnn(C)c3)cc1F)c1ccccc12 (centres unmarked) [Compound B37]
25 | 51 | 3.7 | Cc1nn(C)cc1-c1ccc(CN2C(=O)C3(CCN(C4CCCC4)C3)c3ccccc32)c(F)c1 (centres unmarked) [Compound B30]
26 | 38 | 5.3 | Cn1cc(-c2ccc(CN3C(=O)C4(CCN(C(=O)c5ccccc5)C4)c4ccccc43)c(F)c2)cn1 (single isomer, unassigned) [Compound B45]
27 | 86 | 3.2 | Cn1cc(-c2ccc(CN3C(=O)C4(OCCO4)c4ccccc43)c(F)c2)cn1 [Compound B22, 1′-(2-fluoro-4-(1-methyl-1H-pyrazol-4-yl)benzyl)spiro[[1,3]dioxolane-2,3′-indolin]-2′-one]
28 | 54 | > 10 | CC(=O)N1CCC2(C1)C(=O)N(Cc1ccc(-c3cnn(C)c3)cc1F)c1ccccc12 (centres unmarked) [Compound B63, 1′-acetyl-1-(2-fluoro-4-(1-methyl-1H-pyrazol-4-yl)benzyl)spiro[indoline-3,3′-pyrrolidin]-2-one]
29 | 58 | 2.6 | Cn1cc(-c2ccc(CN3C(=O)C4(CCN(C5CCC5)C4)c4ccccc43)c(F)c2)cn1 (centres unmarked) [Compound B14]
30 | 46 | 6.7 | CC1CCC(N2CCC3(C2)C(=O)N(Cc2ccc(-c4cnn(C)c4)cc2F)c2ccccc23)CC1 (centres unmarked) [Compound B52]
31 | 48 | > 10 | CN1CCCC12C(=O)N(Cc1ccc(-c3cnn(C)c3)cc1)c1ccccc12 (centres unmarked) [Compound B64, 1′-methyl-1-(4-(1-methyl-1H-pyrazol-4-yl)benzyl)spiro[indoline-3,2′-pyrrolidin]-2-one]
32 | 61 | 2.4 | Cn1cc(-c2ccc(CN3C(=O)C4(CCN(C5CCOCC5)C4)c4ccccc43)c(F)c2)cn1 (centres unmarked) [Compound B10]
33 | 36 | 2 | Cn1cc(-c2ccc(CN3C(=O)C4(CCN(C5CCCC5)C4)c4ccccc43)cc2F)cn1 (centres unmarked) [Compound B8]
34 | 62 | 2.4 | Cn1cc(-c2cc(F)c(CN3C(=O)C4(CCN(C5CCCC5)C4)c4ccccc43)cc2F)cn1 (centres unmarked) [Compound B13]
35 | 28 | 3.9 | Cn1cc(-c2ccc(CN3C(=O)C4(CCN(C5CCCOC5)C4)c4ccccc43)c(F)c2)cn1 (single isomer, unassigned) [Compound B34]
36 | 45 | 7.8 | Cn1cc(-c2ccc(CN3C(=O)C4(CCCO4)c4ccccc43)cc2)cn1 (centres unmarked) [Compound B56, 1′-(4-(1-methyl-1H-pyrazol-4-yl)benzyl)-4,5-dihydro-3H-spiro[furan-2,3′-indolin]-2′-one]
37 | 36 | > 10 | Cn1cc(-c2ccc(CN3C(=O)C4(CCN(CC5CCCCC5)C4)c4ccccc43)c(F)c2)cn1 (centres unmarked) [Compound B61]
